Measurements from PubChem BioAssay (NCI).
Several values for one entry are separate records, joined by “and”; a condition that tells them apart may be missing. Equal values may be shown once.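 How tested: cells in 96-well plates exposed to compound for 48 hours at five concentrations. GI50: concentration for 50% inhibition of growth. TGI is the concentration that stops growth completely.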

Experiments:
Assay in all cases: inhibition of tumour cell growth, NCI panel, 48 h
SW-620 colon = tested on: SW-620 colon
NCI-H23 lung = tested on: NCI-H23 lung
PC-3 prostate = tested on: PC-3 prostate
MDA-MB-231 breast = tested on: MDA-MB-231 breast
SK-MEL-5 melanoma = tested on: SK-MEL-5 melanoma
RPMI-8226 leukemia = tested on: RPMI-8226 leukemia
HL-60(TB) leukemia = tested on: HL-60(TB) leukemia
LOX IMVI melanoma = tested on: LOX IMVI melanoma
NCI-H460 lung = tested on: NCI-H460 lung
IGROV1 ovarian = tested on: IGROV1 ovarian

Structure (SMILES)	GI50 (SW-620 colon) [nM]	TGI (SW-620 colon)	GI50 (NCI-H23 lung) [µM]	TGI (NCI-H23 lung)	TGI (PC-3 prostate) [µM]	TGI (MDA-MB-231 breast) [µM]	GI50 (SK-MEL-5 melanoma)	TGI (SK-MEL-5 melanoma)	GI50 (RPMI-8226 leukemia) [nM]	TGI (RPMI-8226 leukemia)	TGI (HL-60(TB) leukemia) [µM]	GI50 (LOX IMVI melanoma) [nM]	TGI (LOX IMVI melanoma)	GI50 (NCI-H460 lung)	TGI (NCI-H460 lung)	TGI (IGROV1 ovarian) [µM]	GI50 (PC-3 prostate) [µM]	GI50 (MDA-MB-231 breast) [µM]	GI50 (HL-60(TB) leukemia) [nM]	GI50 (IGROV1 ovarian) [µM]
CCCCCCCCCCC(O)[C@H]1CCC(C2CC[C@H]([C@H](O)CCCCCCCCCCC(O)CC3=CC(C)OC3=O)O2)O1 (stereo partly specified)	2510	6.83 µM and 12 µM	< 0.01	4.03 µM and 7.12 µM	3.73	4.23	< 10 nM	2.47 µM and 1.74 µM	615	3.2 µM	6.37	1180	3.09 µM and 2.92 µM	2160 nM	4.12 µM and 29.9 µM					
COc1ccc(C2=NN(C(=O)COc3ccc(Cl)cc3)C(O)(c3ccc(Cl)cc3)C2)cc1 (stereo unspecified)		> 100 µM		> 100 µM						> 100 µM	> 100		> 100 µM		> 100 µM	> 100				
NNC(=O)CCC(=O)Nc1cc(Cl)c(Cl)cc1Cl		> 100 µM		> 100 µM				> 100 µM		> 100 µM	> 100		> 100 µM		> 100 µM	> 100				
COc1ccc(C(=O)/C=C/c2c(C(F)(F)F)nc3sccn23)cc1OC	1490	> 100 µM	2.78	27.9 µM	> 100	> 100	4200 nM	> 100 µM	1620	> 100 µM	3.86			1940 nM	6.65 µM	> 100	5.39	5.91	1000	3.15
CC(=O)NCCSC(=O)c1ccccc1				0.191 µM	4.07	7.71		0.0801 µM		2.26 µM	0.829		0.306 µM		6.44 µM	> 29.6			26	
O=c1c2cc(Br)ccc2nc(-c2ccccc2Cl)n1NCC1(O)OCC(O)C(O)C1O (stereo unspecified)		> 100 µM		> 100 µM				> 100 µM		> 100 µM	> 100		> 100 µM		> 100 µM					
CC1CC(c2cccc3c2OCO3)=Nc2ccccc2S1 (stereo unspecified)		> 100 µM		> 100 µM				> 100 µM		> 100 µM	> 100		> 100 µM		> 100 µM	> 100				
CN(C)c1ccc(-c2cc(-c3ccc(Nc4nc(Nc5ccccc5)nc(Nc5ccc(Cl)cc5)n4)cc3)nc(N)n2)cc1	6860	21.8 µM	8.47	53.5 µM		23.4	1890 nM	11.6 µM	3320	20 µM	12.2	5030	46.2 µM	3710 nM	14.1 µM	62		5.64	3200	2.07
O=C(CCCCCCSc1nc(-c2ccccc2)cc(-c2ccccc2)n1)NO	1490	12.8 µM	1.97	5.55 µM	13.4	7.62	1460 nM	3.48 µM	405	3.1 µM		1860	3.84 µM	1400 nM	11.7 µM	10.3	2.24	2.54		2.25
CC1=C(C(=O)Nc2cccc(Cl)c2)C(c2ccc([N+](=O)[O-])cc2)C(C(=O)Nc2cccc(Cl)c2)=C(C)N1				62.3 µM				33.8 µM		83.4 µM	47.4		28.8 µM		50.4 µM	> 100				
O=C(/C=C/c1ccc(Cl)c(Cl)c1)c1ccc(F)cc1		4.08 µM		83.2 µM				41 µM		12.6 µM	33.6				54.9 µM	40.2				
COCC1N=C(c2cc(OC)c(OC)c(OC)c2-c2cc3c(cc2C2OCCCO2)OCO3)O[C@H]1c1ccccc1 (stereo partly specified)		> 100 µM		> 100 µM				> 100 µM		> 100 µM	> 100		> 100 µM		> 100 µM	> 100				
CC(/C(=N/NC(=O)C(N)=O)c1c(Cl)ccc(Cl)c1O)C1(O)C(=O)Nc2ccccc21 (stereo unspecified)		> 100 µM		> 100 µM				> 100 µM			68		> 100 µM		78.9 µM	> 100				
CCN1CCN(CC(=O)Nc2nc3ccc(NCc4ccc(Cl)cc4)cc3s2)CC1	2100	4.78 µM	3.25	> 100 µM		4.02	1670 nM	3.07 µM	1600	4.04 µM	3.87	1680	3.17 µM	2180 nM	4.69 µM	14.9		1.89	1950	3.37
O=c1c2cccc3cccc(c4oc5c6cccc7cccc(c(=O)c5c14)c76)c32		17 µM		20.1 µM				22.2 µM		24.1 µM	20.7		17.2 µM		18.1 µM	28.7				
Fc1cccc2cc3ccc4cccc5ccc(c12)c3c45		> 100 µM		> 100 µM				> 100 µM			> 100		> 100 µM			> 100				
CC(=O)Nc1ccc(/C=N\N2C(=O)c3ccccc3C2=O)cc1		> 100 µM		> 100 µM				> 100 µM		> 100 µM	> 100		> 100 µM		> 100 µM	> 100				
COC(C(=O)C(O)C(C)O)C1Cc2cc3cc(OC4CC(OC(C)=O)C(OC5CC(O)C(OC)C(C)O5)C(C)O4)cc(O)c3c(O)c2C(=O)C1OC1CC(OC2CC(OC3CC(C)(O)C(OC(=O)C(C)C)C(C)O3)C(O)C(C)O2)C(O)C(C)O1 (stereo unspecified)		3.98 µM and 2.22 µM				0.551	9.4 nM and 1.74 nM			0.202 µM and 0.14 µM				26.1 nM and 11.3 nM and 3.05 nM						
Nc1ccn(CCO)c(=O)n1		> 100 µM						> 100 µM		> 100 µM	> 100		> 100 µM		> 100 µM	> 100				
[C-]#[O+].[C-]#[O+].[C-]#[O+].[C-]#[O+].[Ir].[Ir].[O-]c1ccc2ccccc2c1C=Nc1ccc(N=Cc2c([O-])ccc3ccccc23)cc1	> 100000	> 100 µM	> 100	> 100 µM			> 100000 nM	> 100 µM	> 100000	> 100 µM	> 100	> 100000	> 100 µM	> 100000 nM	> 100 µM	> 100			75500	> 100
O=C(O)CCSCCCN1C(=O)c2ccccc2C1=O		> 100 µM		> 100 µM				> 100 µM		> 100 µM						> 100				
